US10174006B2, “Topical aqueous ophthalmic compositions containing a 1H-indole-1-carboxamide derivative and use thereof for treatment of ophthalmic disease” (Novartis AG, priority 2013, dated 2019)
In brackets after ≈: the same amount, converted by molar mass. Read-outs that look alike come from different tables or passages of the source.

How the values were obtained:
[1] = Solubility in 8% HP-γ-CD in acetate buffer with different pH adjustment agents (Table III); assay type: physicochemical
[2] = Equilibrium solubility in HPβCD or HPγCD in acetate (first Table I); assay type: physicochemical; details: for solubility at 3 day: thermodynamic from solid, read-out: 1H-indole-1-carboxamide Solubility
[3] = as above; assay type: physicochemical; details: for solubility at 3 day: thermodynamic from solid, read-out: 1H-indole-1-carboxamide Solubility; remark: listed apart in the source
Source text: Hydroxypropyl-γ-cyclodextrin is preferred for dissolution of the 1H-indole-1-carboxamide.

[4] = Zeta potential of LHA510 particles with additives; assay type: physicochemical; details: dispersant deionized water
Description: It was determined that NaCMC unexpectedly provide the 1H-indole-1-carboxamide with desired Zeta Potential. In particular, NaCMC creates repulsive forces between the particles of 1H-indole-1-carboxamide.

[5] = Solubility in 5% HP-β-CD at pH 4.5 versus pH 7 (Table II); assay type: physicochemical; details: for Solubility Enhancement (fold): compared to intrinsic solubility at pH 7
Source text: Thus, depending upon the type of composition, the desired pH of the composition may be different. For compositions that include the cyclodextrin derivative, particularly the β-cyclodextrin derivative, γ-cyclodextrin derivative or combination thereof, and even more typically hydroxypropy-β-cyclodextrin, hydroxypropyl-γ-cyclodextrin or a combination thereof, the pH is preferably relatively low. The relatively low pH is typically at least 3.0, more typically at least 4.0 and even more typically at least 4.3, but is typically no greater than 5.5, more typically no greater than 5.0 and even more typically no greater than 4.7. It is also preferable that the pH of the composition be at least 4.0 but no greater than 5.0 and more preferably at least 4.3 but no greater than 4.7. Such compositions will typically be solutions in which the 1H-indole-1-carboxamide is dissolved.

[6] = Ocular tissue and plasma PK after repeated t.i.d. monocular dosing for 7 days; assay type: in vivo, pigmented rabbits; details: 2% t.i.d. 7 days
Description: In the contralateral undosed eyes of the 2% t.i.d treatment group, N-(1-methyl-5-(trifluoromethyl)-1H-pyrazol-3-yl)-5-((6-((methylamino)methyl)pyrimidin-4-yl)oxy)-1H-indole-1-carboxamide exposure was lower with the AUClast values of 1260 ng*h/g in cornea, 293000 ng*h/g in RPE/choroid and 3640 ng*h/g in retina.
PK parameters of 1H-indole-1-carboxamide in ocular tissues and plasma following repeated t.i.d. monocular OD dosing for 7 days of 2% N-(1-methyl-5-(trifluoromethyl)-1H-pyrazol-3-yl)-5-((6-((methylamino)methyl)pyrimidin-4-yl)oxy)-1H-indole-1-carboxamide formulation in pigmented rabbits employing suspension C-2 in Table B below.

[7] = Ocular tissue and plasma PK after single unilateral topical dose; assay type: in vivo, pigmented NZW×NZR rabbits; details: pigmented NZW×NZR, rabbit, single unilateral 30 μL dose at 0.5%, 1% and 2%
Description: A single unilateral dose (30 μL) of a preferred ophthalmic suspension composition (i.e., suspension C-2 in Example 3 below) of the present invention was dosed onto the right (OD) eye of pigmented NZW×NZR rabbits at 0.5%, 1%, and 2% N-(1-methyl-5-(trifluoromethyl)-1H-pyrazol-3-yl)-5-((6-((methylamino)methyl)pyrimidin-4-yl)oxy)-1H-indole-1-carboxamide.

[8] = NZW×NZR (pigmented), rabbit, RPE/choroid of the dosed eye (OD), topical or ocular, 2 % formulation, RPE/Choroid OD (dosed eye)
[9] = NZW×NZR (pigmented), rabbit, cornea of the dosed (OD) eye, topical or ocular, Cornea OD (dosed eye)
[10] = NZW×NZR (pigmented), rabbit, cornea of the undosed (OS) eye, topical or ocular, Cornea OS (undosed eye)
[11] = pigmented NZW×NZR, rabbit, RPE/choroid of the undosed (OS) eye, topical or ocular, RPE/Choroid OS (undosed eye)
[12] = pigmented NZW×NZR, rabbit, retina of the dosed (OD) eye, topical or ocular, Retina OD (dosed eye)
[13] = pigmented NZW×NZR, rabbit, retina of the undosed (OS) eye, topical or ocular, Retina OS (undosed eye)

solubility ([1]; pH 4.732, aqueous with cosolvent or surfactant or cyclodextrin, pH adjustment agent 1N Glucoronic acid, final pH 4.732, read-out: 1H-indole-1-carboxamide Solubility): 36 mg/mL (≈ 80.8 mM)
solubility ([1]; pH 4.872, aqueous with cosolvent or surfactant or cyclodextrin, pH adjustment agent 1N Citric acid, final pH 4.872, read-out: 1H-indole-1-carboxamide Solubility): 6.88 mg/mL (≈ 15.4 mM)
solubility ([1]; pH 4.887, aqueous with cosolvent or surfactant or cyclodextrin, pH adjustment agent 1N Acetic acid, final pH 4.887, read-out: 1H-indole-1-carboxamide Solubility): 30.3 mg/mL (≈ 68 mM)
solubility ([1]; pH 4.887, aqueous with cosolvent or surfactant or cyclodextrin, pH adjustment agent 1N Hydrochloric acid, final pH 4.887, read-out: 1H-indole-1-carboxamide Solubility): 15.5 mg/mL (≈ 34.7 mM)
solubility ([1]; pH 4.902, aqueous with cosolvent or surfactant or cyclodextrin, pH adjustment agent 1N Methanesulfonic acid, final pH 4.902, read-out: 1H-indole-1-carboxamide Solubility): 32.6 mg/mL (≈ 73.1 mM)
solubility ([1]; pH 4.955, aqueous with cosolvent or surfactant or cyclodextrin, pH adjustment agent 1N Lactic acid, final pH 4.955, read-out: 1H-indole-1-carboxamide Solubility): 33 mg/mL (≈ 74.2 mM)
solubility ([1]; pH 4.973, aqueous with cosolvent or surfactant or cyclodextrin, pH adjustment agent 1N Sulfuric acid, final pH 4.973, read-out: 1H-indole-1-carboxamide Solubility): 35.6 mg/mL (≈ 79.9 mM)
solubility ([1]; pH 5.014, aqueous with cosolvent or surfactant or cyclodextrin, pH adjustment agent 1N Phosphoric acid, final pH 5.014, read-out: 1H-indole-1-carboxamide Solubility): 25.4 mg/mL (≈ 57.1 mM)
1H-indole-1-carboxamide Solubility ([2]; 1% HPβCD in Acetate, pH 4.584, equilibrium solubility at day 3): 7.28 mg/mL
solubility at 3 day ([2]; 1% HPβCD in acetate, pH 4.584, aqueous with cosolvent or surfactant or cyclodextrin, 1% HPβCD in Acetate, pH 4.584, equilibrium solubility at day 3): 7.5 mg/mL (≈ 16.8 mM)
solubility at 3 day ([2]; 1% HPγCD in acetate, pH 4.607, aqueous with cosolvent or surfactant or cyclodextrin, 1% HPγCD in Acetate, pH 4.607, equilibrium solubility at day 3): 9.28 mg/mL (≈ 20.8 mM)
1H-indole-1-carboxamide Solubility ([2]; 2.5% HPβCD in Acetate, pH 4.606, equilibrium solubility at day 3): 12.45 mg/mL
solubility at 3 day ([2]; 2.5% HPβCD in acetate, pH 4.606, aqueous with cosolvent or surfactant or cyclodextrin, 2.5% HPβCD in Acetate, pH 4.606, equilibrium solubility at day 3): 12.5 mg/mL (≈ 28 mM)
1H-indole-1-carboxamide Solubility ([2]; 5% HPβCD in Acetate, pH 4.670, equilibrium solubility at day 3): 15.93 mg/mL
solubility at 3 day ([2]; 5% HPβCD in acetate, pH 4.67, aqueous with cosolvent or surfactant or cyclodextrin, 5% HPβCD in Acetate, pH 4.670, equilibrium solubility at day 3): 19.6 mg/mL (≈ 44 mM)
1H-indole-1-carboxamide Solubility ([2]; 8% HPβCD in Acetate, pH 4.530, equilibrium solubility at day 3): 25.67 mg/mL
solubility at 3 day ([2]; 8% HPβCD in acetate, pH 4.53, aqueous with cosolvent or surfactant or cyclodextrin, 8% HPβCD in Acetate, pH 4.530, equilibrium solubility at day 3): 25.7 mg/mL (≈ 57.6 mM)
solubility at 3 day ([2]; 8% HPγCD in acetate, pH 4.58, aqueous with cosolvent or surfactant or cyclodextrin, 8% HPγCD in Acetate, pH 4.580, equilibrium solubility at day 3): 30.7 mg/mL (≈ 68.8 mM)
1H-indole-1-carboxamide Solubility ([2]; 10% HPβCD in Acetate, pH 4.610, equilibrium solubility at day 3): 30.57 mg/mL
solubility at 3 day ([2]; 10% HPβCD in acetate, pH 4.61, aqueous with cosolvent or surfactant or cyclodextrin, 10% HPβCD in Acetate, pH 4.610, equilibrium solubility at day 3): 30.6 mg/mL (≈ 68.7 mM)
1H-indole-1-carboxamide Solubility ([2]; 10% HPγCD in Acetate, pH 4.668, equilibrium solubility at day 3): 34.56 mg/mL
1H-indole-1-carboxamide Solubility ([3]; 1% HPγCD in Acetate, pH 4.607, equilibrium solubility at day 3): 9.09 mg/mL
1H-indole-1-carboxamide Solubility ([3]; 2.5% HPγCD in Acetate, pH 4.555, equilibrium solubility at day 3): 14.69 mg/mL
solubility at 3 day ([3]; 2.5% HPγCD in acetate, pH 4.555, aqueous with cosolvent or surfactant or cyclodextrin, 2.5% HPγCD in Acetate, pH 4.555, equilibrium solubility at day 3): 14.7 mg/mL (≈ 33.1 mM)
1H-indole-1-carboxamide Solubility ([3]; 5% HPγCD in Acetate, pH 4.505, equilibrium solubility at day 3): 22.34 mg/mL
solubility at 3 day ([3]; 5% HPγCD in acetate, pH 4.505, aqueous with cosolvent or surfactant or cyclodextrin, 5% HPγCD in Acetate, pH 4.505, equilibrium solubility at day 3): 21.9 mg/mL (≈ 49.1 mM)
1H-indole-1-carboxamide Solubility ([3]; 8% HPγCD in Acetate, pH 4.580, equilibrium solubility at day 3): 30.60 mg/mL
solubility at 3 day ([3]; 10% HPγCD in acetate, pH 4.668, aqueous with cosolvent or surfactant or cyclodextrin, 10% HPγCD in Acetate, pH 4.668, equilibrium solubility at day 3): 34.3 mg/mL (≈ 77 mM)
Zeta Potential ([4]; Additive: 10 mM NaCl): 0.6 mV
Zeta Potential ([4]; Additive: 0.1% Pluronic F127): −1.09 mV
Zeta Potential ([4]; Additive: 0.5% Sodium CMC 7LF PH): −40.3 mV
Zeta Potential ([4]; Additive: 1% Pluronic F127): −0.962 mV
Zeta Potential ([4]; Additive: 1% Polyvinyl phosphoric acid (PVPA)): −0.835 mV
Zeta Potential ([4]; Additive: 1% Povidone (PVP 29/32)): 0 mV
Zeta Potential ([4]; Additive: 1% Sodium CMC 7LF PH): −47.8 mV
Zeta Potential ([4]; Additive: 1% Vitamin E TPGS): −1.77 mV
Zeta Potential ([4]; Additive: None): −2.58 mV
solubility ([5]; 5% HP-β-CD in acetate buffer, aqueous with cosolvent or surfactant or cyclodextrin, 5% HP-β-CD/Acetate buffer/pH 4.5, final pH 4.64, read-out: 1H-indole-1-carboxamide Solubility): 11.7 mg/mL
solubility ([5]; 5% HP-β-CD in phosphate buffer, aqueous with cosolvent or surfactant or cyclodextrin, 5% HP-β-CD/Phosphate buffer/pH 7, final pH 7.06, read-out: 1H-indole-1-carboxamide Solubility): 1.01 mg/mL
Solubility Enhancement (fold) ([5]; 5% HP-β-CD/Acetate buffer/pH 4.5): 1667 fold
Solubility Enhancement (fold) ([5]; 5% HP-β-CD/Phosphate buffer/pH 7): 144 fold
solubility ([5]; pH 7, aqueous buffer, read-out: intrinsic solubility): ~0.007 mg/mL
plasma accumulation [6]: no evidence of plasma accumulation
AUClast Mean ([6]; Cornea OD (dosed eye), Tlast = 96 h): 317000 ng·h/g
AUClast Mean ([6]; Cornea OS (undosed eye), Tlast = 96 h): 1260 ng·h/g
Cmax [6, 8]: 6410 ng/g
Tmax [6, 8]: 0.5 h
Cmax [6, 9]: 32300 ng/g
Tmax [6, 9]: 1 h
Cmax [6, 10]: 47.5 ng/g
Tmax [6, 10]: 0 h
Tmax ([6]; NZW×NZR (pigmented), rabbit, topical or ocular, Plasma): 0.5 h
Cmax ([6]; NZW×NZR (pigmented), rabbit, topical, Plasma): 1.85 ng/mL
AUC(0-t) ([6]; NZW×NZR (pigmented), rabbit, topical, Plasma, Tlast = 96 h, read-out: AUClast Mean): 5.12 ng·h/mL
AUClast Mean ([6]; RPE/Choroid OD (dosed eye), Tlast = 96 h): 453000 ng·h/g
AUClast Mean ([6]; RPE/Choroid OS (undosed eye), Tlast = 96 h): 293000 ng·h/g
local penetration in the dosed eyes as share of the total AUClast ([6]; RPE/choroid): 37.1%
AUClast Mean ([6]; Retina OD (dosed eye), Tlast = 96 h): 8400 ng·h/g
AUClast Mean ([6]; Retina OS (undosed eye), Tlast = 96 h): 3640 ng·h/g
Cmax [6, 11]: 3950 ng/g
Tmax [6, 11]: 18 h
Cmax [6, 12]: 122 ng/g
Tmax [6, 12]: 18 h
Cmax [6, 13]: 67.2 ng/g
Tmax [6, 13]: 18 h
local penetration in the dosed eyes as share of the total AUClast ([6]; retina): 56.7%
Tmax ([7]; RPE/choroid): 18 to 48 h
Tmax ([7]; all ocular tissues and plasma except RPE/choroid): 0.5 to 3 h
Compound: CNCc1cc(Oc2ccc3c(ccn3C(=O)Nc3cc(C(F)(F)F)n(C)n3)c2)ncn1 [LHA510, N-(1-methyl-5-(trifluoromethyl)-1H-pyrazol-3-yl)-5-((6-((methylamino)methyl)pyrimidin-4-yl)oxy)-1H-indole-1-carboxamide]
